From the supplement of paper PMC12592484 come the findings set out here.

Common to all, as to assay: drug sensitivity score (DSS2, normalised partial AUC of dose-response, 72 h CellTiter-Glo viability) (DSS (dimensionless)); higher = more sensitive (stronger growth inhibition / cytotoxicity); extreme values may be limits of the assay
In one assay the test system is CAF#6 (primary prostate cancer-associated fibroblasts of iCAF-like type). The method in brief: (§1)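 Low-passage primary prostate cancer-associated fibroblasts, PF179T, WPMY-1, LNCaP and 22Rv1 cells were seeded into 384-well plates carrying pre-dispensed compounds at five doses covering a 10,000-fold range. After 72 h, viability was read by CellTiter-Glo 2.0 luminescence. Responses were scaled to vehicle and positive-control wells. The drug sensitivity score (DSS2) is a partial area under the fitted logistic dose–response curve divided by the log of its upper asymptote, computed in BREEZE; higher means more sensitive.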

Another assay deals with WPMY-1. Put shortly:
as §1

The subject of a further assay is CAF#2 (primary prostate cancer-associated fibroblasts of iCAF-like type). The method in brief:
as §1

The next assay has as its system CAF#5 (primary prostate cancer-associated fibroblasts of myCAF-like type). Put shortly:
as §1

A further assay concerns CAF#4 (primary prostate cancer-associated fibroblasts of iCAF-like type). The method in brief: as §1
Another assay has as its system LNCAP. Put shortly: as §1
Another assay has as its system CAF#1 (primary prostate cancer-associated fibroblasts of myCAF-like type). Put shortly: as §1
For a further assay, the system named is CAF#3 (primary prostate cancer-associated fibroblasts of myCAF-like type). Put shortly: as §1
The next assay concerns 22Rv1. Put shortly: as §1
A further assay relates to PF179T. Put shortly:
as §1

In a further assay the test system is CAF#7 (primary prostate cancer-associated fibroblasts of myCAF-like type). The method in brief: as §1

Consider `NC1(c2ccc(-c3nc4ccn5c(=O)[nH]nc5c4cc3-c3ccccc3)cc2)CCC1` [MK-2206] (tested concentration range 0.1-1000 nM), for which the drug sensitivity score with CAF#6 was found to be 3.2; in the assay on WPMY-1, 2.4; in the assay with CAF#2 it was 2.6; in the assay with CAF#5, 3; in the assay with CAF#4, 2; in the assay on LNCAP, 11.1. Also, the drug sensitivity score in the assay with CAF#1 is 2.7; with CAF#3, 4; in the assay on 22Rv1, 5.8; in the assay with PF179T, 1.8; in the assay with CAF#7 it was 1.8.
For `Cc1cn(-c2cc(NC(=O)c3ccc(C)c(Nc4nccc(-c5cnccn5)n4)c3)cc(C(F)(F)F)c2)cn1` [Radotinib] (tested concentration range 1-10000 nM), the drug sensitivity score was determined as 0 in the assay on CAF#6; 0 in the assay with WPMY-1; 0 with CAF#2; 0 in the assay with CAF#5; 0.1 in the assay with CAF#4; 0.3 in the assay on LNCAP. Moreover, the drug sensitivity score in the assay on CAF#1 was determined as 0.5; in the assay with CAF#3, 0; in the assay on 22Rv1, 0; in the assay on PF179T, 0; in the assay on CAF#7, 0.
`CC[C@@](C)(Nc1ccnc(-c2c[nH]c3ncccc23)n1)C(=O)NCC(F)(F)F` [Decernotinib] (tested concentration range 1-10000 nM): the drug sensitivity score in the assay with CAF#6 was determined as 0; in the assay with WPMY-1, 0.7; with CAF#2, 0.1; in the assay with CAF#5, 0; with CAF#4 it was 0; with LNCAP, 0. In addition, the drug sensitivity score in the assay on CAF#1 stood at 0.2; in the assay with CAF#3, 0.5; with 22Rv1 it was 0; in the assay with PF179T, 0; in the assay with CAF#7 it was 0.
As for `Cn1ncnc1[C@H]1c2n[nH]c(=O)c3cc(F)cc(c23)N[C@@H]1c1ccc(F)cc1` [Talazoparib] (tested concentration range 0.1-1000 nM), the drug sensitivity score in the assay with CAF#6 was 1.6; with WPMY-1 it was 4; in the assay with CAF#2 it was 8; in the assay with CAF#5, 6.2; with CAF#4 it was 3.4; with LNCAP, 15.3. The drug sensitivity score in the assay with CAF#1 stood at 4.9; in the assay on CAF#3, 2.1; in the assay with 22Rv1, 11.5; in the assay on PF179T, 11.2; with CAF#7, 2.9.
On to `CNC(=O)c1cc(Oc2ccc(NC(=O)Nc3ccc(Cl)c(C(F)(F)F)c3)cc2)ccn1` [Sorafenib] (tested concentration range 0.1-1000 nM), for which the drug sensitivity score in the assay on CAF#6 was 0; with WPMY-1 it was 0; in the assay with CAF#2, 0; in the assay on CAF#5 it was 0; with CAF#4 it was 1.2; in the assay on LNCAP, 0. Further, the drug sensitivity score in the assay with CAF#1 was 0; with CAF#3, 2.6; in the assay on 22Rv1, 0; in the assay on PF179T, 0; with CAF#7, 0.
In the case of `COc1cc2ncnc(Nc3ccc(F)c(Cl)c3)c2cc1OCCCN1CCOCC1` [Gefitinib] (tested concentration range 1-10000 nM), the drug sensitivity score with CAF#6 worked out at 0.2; with WPMY-1, 2.1; with CAF#2 it was 2; in the assay on CAF#5, 0.5; in the assay on CAF#4 it was 2.8; with LNCAP, 2.6. Further, the drug sensitivity score turned out to be 0 with CAF#1; 0.2 with CAF#3; 3.9 in the assay with 22Rv1; 1.7 in the assay with PF179T; 0.2 in the assay on CAF#7.
`O=C(/C=C/c1cccnc1)NCCCCC1CCN(C(=O)c2ccccc2)CC1` [Daporinad] (tested concentration range 0.1-1000 nM): the drug sensitivity score in the assay with CAF#6 stood at 16.5; with WPMY-1, 29.4; in the assay on CAF#2, 25.8; in the assay on CAF#5, 13.9; with CAF#4, 23.6; in the assay on LNCAP, 26.9. The drug sensitivity score in the assay with CAF#1 stood at 13.9; in the assay on CAF#3 it was 12.8; in the assay with 22Rv1, 25.6; with PF179T it was 21.3; with CAF#7, 17.5.
`Nc1ncn([C@H]2C[C@H](O)[C@@H](CO)O2)c(=O)n1` [Decitabine] (tested concentration range 1-10000 nM): the drug sensitivity score stood at 0.6 with CAF#6; 0.8 in the assay with WPMY-1; 0.8 with CAF#2; 1.6 with CAF#5; 0 with CAF#4; 0 in the assay on LNCAP. Further, the drug sensitivity score in the assay with CAF#1 turned out to be 0; with CAF#3, 0.1; with 22Rv1, 1.1; in the assay on PF179T it was 1.8; with CAF#7, 0.
With `COC(=O)c1ccc([C@H]2c3[nH]c4ccccc4c3C[C@H](C(=O)OC)N2C(=O)CCl)cc1` [RSL3] (tested concentration range 1-10000 nM), the drug sensitivity score is 0.6 with CAF#6; 0 with WPMY-1; 3 with CAF#2; 0.3 in the assay with CAF#5; 0 in the assay with CAF#4; 0.9 in the assay on LNCAP. Besides, the drug sensitivity score with CAF#1 turned out to be 0.7; in the assay with CAF#3, 2.5; in the assay with 22Rv1, 0; in the assay on PF179T it was 0; in the assay on CAF#7, 9.5.
On to `O=C(O)CNC(=O)c1c(O)c2ccccc2n(Cc2ccccc2)c1=O` [IOX-2] (tested concentration range 2.5-25000 nM), for which the drug sensitivity score with CAF#6, in the assay on WPMY-1, with CAF#2, in the assay on CAF#5, in the assay with CAF#4 and with LNCAP was 0 throughout. Besides, the drug sensitivity score in the assay with CAF#1, in the assay with CAF#3, in the assay on 22Rv1, in the assay with PF179T and in the assay on CAF#7 was 0 in each case.
For the molecule `CC(=O)O[C@@]12CO[C@@H]1C[C@H](O)[C@@]1(C)C(=O)[C@H](O)C3=C(C)[C@@H](OC(=O)[C@H](O)[C@@H](NC(=O)OC(C)(C)C)c4ccccc4)C[C@@](O)([C@@H](OC(=O)c4ccccc4)[C@H]21)C3(C)C` [Docetaxel] (tested concentration range 0.1-1000 nM), the drug sensitivity score was determined as 16.7 in the assay on CAF#6; 28.3 in the assay with WPMY-1; 20.6 in the assay with CAF#2; 17.2 in the assay on CAF#5; 14.2 with CAF#4; 34.6 in the assay on LNCAP. The drug sensitivity score with CAF#1 came to 16.4; with CAF#3 it was 12.8; in the assay with 22Rv1, 25.4; in the assay on PF179T, 19.7; in the assay on CAF#7, 25.6.
Regarding `CC(C)Nc1cc(-c2c[nH]c(C(=O)N[C@H](CO)c3cccc(Cl)c3)c2)c(Cl)cn1` [Ulixertinib] (tested concentration range 1-10000 nM), the drug sensitivity score with CAF#6 turned out to be 2; in the assay on WPMY-1, 5.7; in the assay on CAF#2, 2.2; in the assay with CAF#5, 0.3; in the assay with CAF#4, 1.2; with LNCAP, 6.1. For the same molecule, the drug sensitivity score in the assay with CAF#1 was 0.2; in the assay on CAF#3, 0; in the assay on 22Rv1, 9.6; with PF179T it was 1.9; in the assay on CAF#7, 4.3.
